# Reference: ChEMBL document CHEMBL1201862, “PubChem BioAssay data set” (2004)
# Calls of active or inactive are those of the source.
# Tests used:
# [1] = target: Prothrombin (Homo sapiens, UniProt P00734); experiment: Thrombin 1536 HTS Dose Response Confirmation. [Related pubchem assays: 1046 (Thrombin 1536 HTS; hits were confirmed in this assay)]; assay type: functional
# [2] = target: T1, Short transient receptor potential channel 4 (Mus musculus, UniProt Q9QUQ5); experiment: mouse TRPC4 channel inhibitors, dose response, cell-based, HEK293 TRPC4/mu-opioid, Fluo-4 calcium (AID 434942); assay type: functional;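 also: potency of inhibitors blocking the TRPC4 calcium response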
# T1 sequence (Q9QUQ5 whole entry): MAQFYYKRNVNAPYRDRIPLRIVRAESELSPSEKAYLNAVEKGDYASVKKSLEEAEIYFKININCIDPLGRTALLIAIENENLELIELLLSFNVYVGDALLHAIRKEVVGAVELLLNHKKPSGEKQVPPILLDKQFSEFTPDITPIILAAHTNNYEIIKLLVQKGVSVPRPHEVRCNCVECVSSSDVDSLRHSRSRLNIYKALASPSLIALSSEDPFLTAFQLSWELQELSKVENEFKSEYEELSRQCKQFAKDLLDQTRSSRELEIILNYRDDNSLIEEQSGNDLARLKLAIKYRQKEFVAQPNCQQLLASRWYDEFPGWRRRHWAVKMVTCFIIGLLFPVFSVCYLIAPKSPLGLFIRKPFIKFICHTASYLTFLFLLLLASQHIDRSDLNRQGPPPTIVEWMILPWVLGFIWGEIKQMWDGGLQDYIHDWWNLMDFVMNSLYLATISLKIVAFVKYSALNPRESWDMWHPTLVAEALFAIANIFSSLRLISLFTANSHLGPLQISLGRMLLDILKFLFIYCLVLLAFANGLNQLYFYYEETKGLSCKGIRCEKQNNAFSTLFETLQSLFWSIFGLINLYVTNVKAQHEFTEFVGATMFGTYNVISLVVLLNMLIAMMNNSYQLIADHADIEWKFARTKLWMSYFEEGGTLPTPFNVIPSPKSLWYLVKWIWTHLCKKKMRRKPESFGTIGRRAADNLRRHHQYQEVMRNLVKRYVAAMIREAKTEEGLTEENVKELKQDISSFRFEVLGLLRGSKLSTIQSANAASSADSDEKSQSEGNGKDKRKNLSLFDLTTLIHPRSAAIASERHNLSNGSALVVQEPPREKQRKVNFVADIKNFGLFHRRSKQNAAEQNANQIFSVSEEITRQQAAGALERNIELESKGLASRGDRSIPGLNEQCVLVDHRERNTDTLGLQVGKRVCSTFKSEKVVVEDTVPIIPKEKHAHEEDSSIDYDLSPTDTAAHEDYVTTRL
# [3] = target: FAD-linked sulfhydryl oxidase ALR (Homo sapiens, UniProt P55789); experiment: inhibitors of human ALR sulfhydryl oxidase, dose response, biochemical, H2O2 detection, luminescence, cherry-pick (AID 493248)
# Sequence of FAD-linked sulfhydryl oxidase ALR (P55789 whole entry): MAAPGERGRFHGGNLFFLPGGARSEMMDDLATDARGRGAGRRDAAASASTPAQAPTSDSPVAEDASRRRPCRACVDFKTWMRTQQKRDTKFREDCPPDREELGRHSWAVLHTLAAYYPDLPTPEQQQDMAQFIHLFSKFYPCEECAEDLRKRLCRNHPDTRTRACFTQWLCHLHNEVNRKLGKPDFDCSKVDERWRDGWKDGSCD
# [4] = HeLa cell cytotoxicity, dose response, cytotoxicity control for MgcRacGAP inhibitor project (AID 624300); assay type: functional
# [5] = target: T2, Rac GTPase-activating protein 1 (Homo sapiens, UniProt Q9H0H5); experiment: MgcRacGAP GTPase-activating activity inhibitors, confirmation, biochemical, ADP Hunter fluorescence, primary and confirmatory (AID 624330); assay type: functional
# T2 sequence (Q9H0H5 whole entry): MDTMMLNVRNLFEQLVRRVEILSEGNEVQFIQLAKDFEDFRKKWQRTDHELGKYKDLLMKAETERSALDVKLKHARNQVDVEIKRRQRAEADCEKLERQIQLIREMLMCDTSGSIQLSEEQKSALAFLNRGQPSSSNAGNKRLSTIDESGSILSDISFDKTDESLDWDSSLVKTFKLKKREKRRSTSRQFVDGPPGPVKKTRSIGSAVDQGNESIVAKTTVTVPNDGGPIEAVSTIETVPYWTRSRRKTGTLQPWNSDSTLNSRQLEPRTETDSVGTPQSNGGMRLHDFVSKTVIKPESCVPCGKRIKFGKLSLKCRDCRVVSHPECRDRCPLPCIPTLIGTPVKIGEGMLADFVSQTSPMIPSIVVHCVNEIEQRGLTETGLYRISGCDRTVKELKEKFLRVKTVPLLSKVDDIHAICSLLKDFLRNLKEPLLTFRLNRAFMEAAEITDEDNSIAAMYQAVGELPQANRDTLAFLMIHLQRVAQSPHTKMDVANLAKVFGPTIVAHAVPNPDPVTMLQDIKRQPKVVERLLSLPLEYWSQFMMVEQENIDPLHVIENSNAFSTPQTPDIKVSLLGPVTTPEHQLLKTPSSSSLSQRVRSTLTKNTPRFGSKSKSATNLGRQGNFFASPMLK
# [6] = microbe, parasite or virus in culture; assay type: functional; conditions: Mycobacterium tuberculosis
# [7] = target: Nonstructural protein 1 (Influenza A virus, UniProt Q194T2); assay type: functional, Influenza A virus (A/California/07/2009(H1N1))
# Sequence of Nonstructural protein 1 (Q194T2 whole entry): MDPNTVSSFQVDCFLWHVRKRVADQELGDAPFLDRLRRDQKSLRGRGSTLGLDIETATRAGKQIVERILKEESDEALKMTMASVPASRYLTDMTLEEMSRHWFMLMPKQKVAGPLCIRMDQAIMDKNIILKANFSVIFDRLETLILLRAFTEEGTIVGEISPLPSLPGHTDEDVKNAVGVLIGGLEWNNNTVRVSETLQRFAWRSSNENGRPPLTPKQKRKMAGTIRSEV
# [8] = target: T3, Leucine aminopeptidase (Plasmodium falciparum 3D7, UniProt Q8IL11); experiment: P. falciparum M17LAP inhibitors, primary screen, biochemical, fluorogenic H-Leu-NHMec substrate, 1536-well (AID 1619); assay type: functional
# T3 sequence (Q8IL11 whole entry): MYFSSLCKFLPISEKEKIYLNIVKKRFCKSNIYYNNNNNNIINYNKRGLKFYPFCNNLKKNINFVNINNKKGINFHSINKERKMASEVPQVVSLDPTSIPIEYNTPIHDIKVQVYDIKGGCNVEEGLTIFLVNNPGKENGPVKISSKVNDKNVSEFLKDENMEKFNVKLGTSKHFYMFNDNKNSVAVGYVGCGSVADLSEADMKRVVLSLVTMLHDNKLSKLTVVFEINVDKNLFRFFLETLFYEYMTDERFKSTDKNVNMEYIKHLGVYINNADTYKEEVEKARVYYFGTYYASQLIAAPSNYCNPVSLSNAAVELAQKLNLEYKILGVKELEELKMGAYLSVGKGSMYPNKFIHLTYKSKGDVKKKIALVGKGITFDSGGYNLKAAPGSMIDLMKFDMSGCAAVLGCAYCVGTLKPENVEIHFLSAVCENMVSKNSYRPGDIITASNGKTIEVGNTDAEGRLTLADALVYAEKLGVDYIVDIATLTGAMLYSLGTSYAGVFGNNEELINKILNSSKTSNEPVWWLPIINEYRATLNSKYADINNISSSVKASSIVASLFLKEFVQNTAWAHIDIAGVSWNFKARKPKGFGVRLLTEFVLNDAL
# [9] = P. falciparum Dd2 growth inhibitors, dose response, SYBR Green, cherry-picked samples (AID 1159567); assay type: functional, cell-based
# [10] = target: DNA dC->dU-editing enzyme APOBEC-3G (Homo sapiens, UniProt Q9HC16); experiment: Dose Response confirmation of small molecule APOBEC3G DNA Deaminase Inhibitors via a fluorescence-based single-stranded DNA deaminase assay. [Related pubchem assays (depositor defined):AID493012, AID493028]; assay type: functional
# Sequence of DNA dC->dU-editing enzyme APOBEC-3G (Q9HC16 whole entry): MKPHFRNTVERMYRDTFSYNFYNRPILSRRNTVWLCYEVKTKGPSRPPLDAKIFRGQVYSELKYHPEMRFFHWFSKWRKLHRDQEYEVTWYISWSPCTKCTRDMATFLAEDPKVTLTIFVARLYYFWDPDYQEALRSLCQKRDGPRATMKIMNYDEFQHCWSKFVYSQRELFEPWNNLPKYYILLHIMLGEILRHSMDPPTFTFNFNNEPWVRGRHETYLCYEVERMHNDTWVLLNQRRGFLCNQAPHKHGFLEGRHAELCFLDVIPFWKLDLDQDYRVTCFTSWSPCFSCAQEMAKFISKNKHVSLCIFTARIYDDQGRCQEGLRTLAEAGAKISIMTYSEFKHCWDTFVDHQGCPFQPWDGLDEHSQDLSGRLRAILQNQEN
# [11] = HEp-2 cell cytotoxicity, dose response, cytotoxicity control for RSV inhibitor project, HTS (AID 2410); assay type: functional; conditions: human respiratory syncytial virus
# [12] = target: Glyceraldehyde-3-phosphate dehydrogenase (Homo sapiens, UniProt P04406)
# Sequence of Glyceraldehyde-3-phosphate dehydrogenase (P04406 whole entry): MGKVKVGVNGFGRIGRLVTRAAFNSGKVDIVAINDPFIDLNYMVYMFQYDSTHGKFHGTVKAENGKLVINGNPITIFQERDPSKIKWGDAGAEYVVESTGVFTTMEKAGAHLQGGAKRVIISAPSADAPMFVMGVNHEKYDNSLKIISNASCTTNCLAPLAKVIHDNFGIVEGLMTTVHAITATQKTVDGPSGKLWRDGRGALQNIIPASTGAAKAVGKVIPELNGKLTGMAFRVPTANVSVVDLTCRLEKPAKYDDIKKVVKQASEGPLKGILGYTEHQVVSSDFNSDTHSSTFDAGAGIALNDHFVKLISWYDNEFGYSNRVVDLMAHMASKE
# [13] = target: Cytochrome P450 3A4 (Homo sapiens, UniProt P08684);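 also: CYP3A4 tested as one member of a cytochrome P450 panel screen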
# Sequence of Cytochrome P450 3A4 (P08684 whole entry): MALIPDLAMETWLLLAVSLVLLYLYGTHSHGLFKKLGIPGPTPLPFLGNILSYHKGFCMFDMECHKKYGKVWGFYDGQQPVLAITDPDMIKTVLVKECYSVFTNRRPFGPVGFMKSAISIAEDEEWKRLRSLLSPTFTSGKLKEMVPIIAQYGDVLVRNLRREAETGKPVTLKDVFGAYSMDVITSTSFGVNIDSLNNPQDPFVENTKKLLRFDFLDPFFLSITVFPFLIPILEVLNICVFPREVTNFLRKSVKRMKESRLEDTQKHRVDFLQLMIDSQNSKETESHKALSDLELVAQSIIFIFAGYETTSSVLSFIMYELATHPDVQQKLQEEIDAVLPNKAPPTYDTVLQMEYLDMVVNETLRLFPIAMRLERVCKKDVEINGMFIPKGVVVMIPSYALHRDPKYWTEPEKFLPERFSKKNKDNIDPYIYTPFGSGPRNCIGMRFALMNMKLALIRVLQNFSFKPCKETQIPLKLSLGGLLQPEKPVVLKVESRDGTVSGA
# [14] = target: T4, Heat shock factor protein 1 (Mus musculus, UniProt P38532); experiment: inhibition of MG132-induced HSE-luciferase signal, confirmation, cell-based, NIH3T3, luminescence, dose retest (AID 2382); assay type: functional;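 also: NIH3T3 fibroblasts with HSF1-driven luciferase reporter stressed by proteasome inhibitor MG132; luminescence from HSF1-driven luciferase expression after 8 hours of MG132 stress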
# T4 sequence (P38532 whole entry): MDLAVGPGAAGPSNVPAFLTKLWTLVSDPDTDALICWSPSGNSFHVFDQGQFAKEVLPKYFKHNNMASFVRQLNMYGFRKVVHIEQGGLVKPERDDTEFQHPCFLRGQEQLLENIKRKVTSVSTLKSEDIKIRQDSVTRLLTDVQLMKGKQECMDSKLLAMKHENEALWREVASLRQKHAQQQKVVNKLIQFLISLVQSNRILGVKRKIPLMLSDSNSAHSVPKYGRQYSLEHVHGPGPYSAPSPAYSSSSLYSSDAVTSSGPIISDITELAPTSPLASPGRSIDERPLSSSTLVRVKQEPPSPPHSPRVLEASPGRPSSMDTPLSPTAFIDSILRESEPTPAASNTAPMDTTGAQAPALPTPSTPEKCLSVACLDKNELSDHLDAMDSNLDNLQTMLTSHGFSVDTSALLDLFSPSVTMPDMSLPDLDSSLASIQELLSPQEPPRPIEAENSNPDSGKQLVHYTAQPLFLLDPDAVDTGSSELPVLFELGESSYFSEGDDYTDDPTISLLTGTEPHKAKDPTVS
# [15] = target: Cytochrome P450 2C9 (Homo sapiens, UniProt P11712)
# Sequence of Cytochrome P450 2C9 (P11712 whole entry, the tested form may be a part): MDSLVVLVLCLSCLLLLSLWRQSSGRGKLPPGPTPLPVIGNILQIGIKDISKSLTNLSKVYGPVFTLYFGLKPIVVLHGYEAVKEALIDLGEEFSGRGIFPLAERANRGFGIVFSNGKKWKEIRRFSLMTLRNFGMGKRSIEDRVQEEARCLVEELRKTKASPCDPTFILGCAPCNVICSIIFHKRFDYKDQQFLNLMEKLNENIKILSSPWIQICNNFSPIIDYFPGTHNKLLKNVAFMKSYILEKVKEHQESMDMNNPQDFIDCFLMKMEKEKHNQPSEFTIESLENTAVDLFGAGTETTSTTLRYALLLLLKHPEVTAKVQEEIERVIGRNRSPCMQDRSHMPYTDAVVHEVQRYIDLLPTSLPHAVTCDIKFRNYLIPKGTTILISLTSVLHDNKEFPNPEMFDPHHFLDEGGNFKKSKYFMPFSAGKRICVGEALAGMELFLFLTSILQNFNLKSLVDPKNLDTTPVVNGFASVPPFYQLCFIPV
# [16] = target: T5, RNA-binding protein pos-1 (Caenorhabditis elegans, UniProt G5EF15); experiment: inhibitors of POS-1/mex-3 RNA binding, dose response, biochemical, fluorescence polarization (AID 1964);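 also: purified POS-1 fused to maltose binding protein made in E. coli; potency of compounds blocking POS-1 binding to fluorescent RNA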
# T5 sequence (G5EF15 whole entry): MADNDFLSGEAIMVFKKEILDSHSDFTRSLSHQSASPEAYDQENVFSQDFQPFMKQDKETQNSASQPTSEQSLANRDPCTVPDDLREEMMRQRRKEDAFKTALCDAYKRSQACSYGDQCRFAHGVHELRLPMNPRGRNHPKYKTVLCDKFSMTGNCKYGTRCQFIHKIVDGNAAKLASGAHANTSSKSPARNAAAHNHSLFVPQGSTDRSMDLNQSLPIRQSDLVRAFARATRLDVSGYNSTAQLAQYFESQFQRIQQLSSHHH
# [17] = target: T6, Zinc finger protein mex-5 (Caenorhabditis elegans, UniProt Q9XUB2); experiment: MEX-5/TCR-2 RNA interaction inhibitors, dose response, biochemical, C. elegans, fluorescence polarization (AID 1960)
# T6 sequence (Q9XUB2 whole entry): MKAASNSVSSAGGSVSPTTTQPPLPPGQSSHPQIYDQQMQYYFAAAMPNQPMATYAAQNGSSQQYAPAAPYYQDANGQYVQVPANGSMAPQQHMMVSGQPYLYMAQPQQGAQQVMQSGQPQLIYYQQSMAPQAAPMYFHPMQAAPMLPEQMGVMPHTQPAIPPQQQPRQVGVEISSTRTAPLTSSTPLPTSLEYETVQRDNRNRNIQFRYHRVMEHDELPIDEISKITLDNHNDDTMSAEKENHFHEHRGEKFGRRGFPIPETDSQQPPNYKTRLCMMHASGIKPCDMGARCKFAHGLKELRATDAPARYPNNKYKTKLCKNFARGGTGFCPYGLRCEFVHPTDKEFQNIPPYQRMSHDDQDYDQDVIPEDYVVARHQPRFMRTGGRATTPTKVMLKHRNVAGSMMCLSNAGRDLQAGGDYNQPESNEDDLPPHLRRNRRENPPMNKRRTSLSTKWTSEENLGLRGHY
compound,measurement,setting,value
CCOC(=O)CCNC(=O)N1CCCC(CNS(=O)(=O)c2cccs2)C1 (centres undefined),IC50,[1],> 50 µM (not active)
CCCCn1c(NCCO)nc2ccccc21,EC50,[2],1.68 µM (active)
OCC1(CCCc2ccccc2)CCN(Cc2cc(F)ccc2F)CC1,EC50,[2],4.22 µM (active)
CCOc1cc(S(=O)(=O)NCc2ccc(OC)cc2)c(OCC)cc1-n1cnnn1,IC50,[1],> 50 µM (not active)
Nc1nc(-c2cccnc2)nn1C(=O)c1ccc(F)cc1,IC50,[1],2.01 µM (active)
COc1ccc2[nH]c(NCc3ccccc3)nc2c1,EC50,[2],1.68 µM (active)
CCn1c(/C=C/c2ccc(O)cc2)nc2ccccc2c1=O,AC50,[3],3.35 µM (active)
same,CC50,[4],100 µM (active)
same,IC50,[5],33.7 µM (active)
Cc1ccc(C(c2nnnn2Cc2cccs2)N2CCN(Cc3ccc4c(c3)OCO4)CC2)cc1 (centres undefined),CC50,[6],> 40 µM (active)
same,IC50,[7],> 100 µM (active)
O=C(NCc1ccc2c(c1)OCO2)c1cnc2ccc(S(=O)(=O)N3CCOCC3)cc2c1O,IC50,[1],0.845 µM (active)
O=C(N/N=C/c1coc2ccccc2c1=O)c1cccc([N+](=O)[O-])c1,IC50,[8],35.2 µM (active)
COc1ccc2c3c(n(C)c2c1)[C@H](CO)N(C(=O)CC1CC1)CC31CCN(Cc2nccs2)CC1,AC50,[9],3.93 µM (active)
Sc1nc2ccccc2n1Cc1ccccc1,IC50,[10],37.2 µM (active)
Cc1cc(C)n(CCOc2ccc(Cl)cc2Cl)n1,CC50,[11],> 50 µM (active)
O=C1C(Cl)=C(N2CCN(c3ncccn3)CC2)C(=O)N1c1ccnc(Cl)c1,IC50,[12],> 50 µM (inconclusive)
CSc1nc(N)nc(-c2cccs2)c1C#N,CC50,[11],> 25 µM (active)
same,AC50,[13],25.1 µM (inconclusive)
COc1ccc(-c2ccnc3nc(Sc4ncc(C(F)(F)F)cc4Cl)nn23)cc1,CC50,[11],36.7 µM (active)
O=S(=O)(c1ccc(F)cc1)N1C[C@@H]2N[C@H](C1)[C@H]2c1ccc(-c2ccc(F)cc2)cc1,AC50,[9],2.1 µM (active)
COc1ccc(/C=N/Nc2ccc(C(=O)O)cc2)cc1Br,IC50,[8],23.4 µM (active)
same,EC50,[14],< 0.16 µM (active)
same,AC50,[3],0.837 µM (active)
O=C(CCCSc1ccc(Cl)cc1)Nc1cc(S(=O)(=O)N2CCOCC2)ccc1O,IC50,[10],33.2 µM (active)
C[C@H](Br)C(=O)c1ccc2cc(Br)c3ccccc3c2c1,AC50,[15],inconclusive
CN(C)/C=N/c1ncc(C(=O)c2ccc3ccccc3c2)s1,AC50,[15],inconclusive
CCCC(=O)n1nc(-c2cccnc2)nc1NCc1ccc(OC)cc1,IC50,[1],0.0883 µM (active)
Nc1ccccc1C(=O)N=Nc1[nH]c(N)c2ccccc12,IC50,[7],20.7 µM (active)
COc1cccc(/C=N/NC(=S)Nc2cccc(C(=O)O)c2)c1,IC50,[8],15.7 µM (active)
COc1ccc(NC(=O)CC2COc3ccccc3O2)c(OC)c1 (centres undefined),IC50,[8],7.18 µM (active)
Cc1cccn2c(=O)c3cc(S(=O)(=O)c4ccccc4)c(=N)n(Cc4cccnc4)c3nc12,CC50,[11],> 50 µM (active)
same,EC50,[16],8.88 µM (inconclusive)
same,EC50,[17],18.8 µM (inconclusive)
